Measurements as given in patent publication US20100324086A1, “COMPOUNDS AND METHODS” (Novasaid AB, priority 2008, published 2010).

Assays:
[1] = test system: A549 lung carcinoma cells; test: A549 assay, PGE2 content in supernatant by EIA; type: cell-based; conditions: Homo sapiens, A549; TNFalfa and IL-1beta induced 16 h; 30 min compound, then 10 μM arachidonic acid 30 min
Protocol: A549 lung carcinoma cells, seeded at a density of 10,000 cells/well, were grown in 96 well tissue culture plates. TNFalfa (5 ng/ml) and […] (5 ng/ml) were added and the cells were incubated for 16 hours. Cells were washed in PBS and test compounds at the appropriate concentration in HBSS/0.1% BSA were added. After 30 minutes incubation with test compounds, 10 μM arachidonic acid was added and cells were further incubated for 30 minutes. Supernatant was collected and analyzed for PGE2 content by EIA according to manufacturer's instructions.

[2] = target: T1, recombinant, membrane-bound mPGES-1 (Homo sapiens, UniProt O14684); test: Thiobarbituric acid assay (TBA-MDA assay), inhibition of mPGES-1; type: biochemical; conditions: remaining PGH2 measured at 535 nm
T1 sequence (O14684 1-152): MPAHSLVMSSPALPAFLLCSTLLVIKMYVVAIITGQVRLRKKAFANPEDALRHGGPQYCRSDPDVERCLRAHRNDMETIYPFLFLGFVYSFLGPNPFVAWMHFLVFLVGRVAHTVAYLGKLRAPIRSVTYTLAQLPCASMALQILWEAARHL
Description: Malondialdehyde is a product of lipid peroxidation and reacts with thiobarbituric acid forming a red product that absorbs at 535 nm (W. G. Niehaus, Jr and B. Samuelsson, Eur. J. Biochem 6, 126 (1968). The extinction coefficient of the TBA-MDA conjugate is 1.56×10^5 M^−1 cm^−1 (E. D. Wills. Biochem. J. 113, 315 (1969).
The method used for detection of inhibition of mPGES-1 is based on the detection of the amount of remaining PGH2. This method was described more than 20 years ago by Basevich et al (Bioorg. Khim. 1983, 9(5), 658-665.
The assay used was a modified variant and used citric acid instead of the TCA-TBA-HCl reagent described in the original assay. In this assay recombinant, membrane-bound mPGES-1 was incubated with PGH2. The reaction was stopped by adding citric acid with a final pH of 3 and a large excess of FeCl2 (20 mM) to convert any remaining PGH2 into MDA and […]. TBA reagent was finally added (0.67%) and the samples were heated at 80° C. for 30 min. The absorbance of the conjugate was measured at 535 nm.
The product of mPGES-1 (PGE2) was not measured directly in this assay, but rather the remaining substrate (PGH2) indirectly by adding FeCl2 that converts PGH2 into […] and 12-HHT. As a positive control a known mPGES-1 inhibitor, MK-886, was used and the new inhibitors were compared with the inhibition of MK-886 (% of MK-886 inhibition).

SMILES | EC50 [1] [nM] | IC50 [2] [nM]
O=C(NCc1cccc2ccccc12)c1cccc(NC(=O)c2ccccc2Cl)c1 [Compound 117, 2-Chloro-N-{3-[(naphthalen-1-ylmethyl)-carbamoyl]-phenyl}-benzamide] | 1480 | 260
O=C(Nc1ccc(C(F)(F)F)cn1)c1cccc(NC(=O)c2ccccc2C(F)(F)F)c1 [Compound 153, 3-[2-(Trifluoromethyl)-benzoylamino]-N-(5-trifluoromethyl-pyridine-2-yl)-benzamide] | 500 | 49
